Values of other authors, collected in patent US20080188497A1, “Dipyridamole, Acetylsalicylic Acid, and Angiotensin II Antagonist Pharmaceutical Compositions” (Boehringer Ingelheim International GmbH, priority 2003, published 2008).

Conditions: ESPS-2 clinical study; compared with low-dose aspirin / aspirin alone

In the case of OCCN(CCO)c1nc(N2CCCCC2)c2nc(N(CCO)CCO)nc(N3CCCCC3)c2n1 [dipyridamole, 2,6-bis(diethanolamino)-4,8-dipiperidinopyrimido[5,4-d]pyrimidine], the “reduction of stroke risk” value is given as “as effective as low-dose aspirin”.
